System: MDRAB
Test: Checkerboard assay (combined-use MIC, FIC)
Assay type: cell-based, Acinetobacter baumannii
Details: for FIC, all strains / MIC50 of the antibiotic after combined use / MIC90 of the antibiotic after combined use / reduction of the antibiotic's MIC50 vs single use / reduction of the antibiotic's MIC90 vs single use / share of strains with FIC ≤ 0.5: 20 MDRABs
How it was run: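 Checkerboard combinations of S20b and antibiotic run per NCCLS method against ESBL E. coli, MDR A. baumannii and MDR P. aeruginosa.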

[1] = antibiotic with 60% ethanol extract
[2] = antibiotic with 95% ethanol extract
[3] = antibiotic with EA (10% ethanol extract)
[4] = antibiotic with EA (water extract)

Polymycin B [POLB]
FIC, all strains [1]: ≤ 2
MIC50 of the antibiotic after combined use [1]: 0.5 µg/mL
MIC90 of the antibiotic after combined use [1]: 4 µg/mL
reduction of the antibiotic's MIC50 vs single use [1]: 87.5%
reduction of the antibiotic's MIC90 vs single use [1]: 75%
share of strains with FIC ≤ 0.5 [1]: 15%
FIC, all strains [2]: ≤ 2
MIC50 of the antibiotic after combined use [2]: 1 µg/mL
MIC90 of the antibiotic after combined use [2]: 4 µg/mL
reduction of the antibiotic's MIC50 vs single use [2]: 75%
reduction of the antibiotic's MIC90 vs single use [2]: 75%
share of strains with FIC ≤ 0.5 [2]: 20%
FIC, all strains [3]: ≤ 2
MIC50 of the antibiotic after combined use [3]: 1 µg/mL
MIC90 of the antibiotic after combined use [3]: 4 µg/mL
reduction of the antibiotic's MIC50 vs single use [3]: 75%
reduction of the antibiotic's MIC90 vs single use [3]: 75%
share of strains with FIC ≤ 0.5 [3]: 15%
FIC, all strains [4]: ≤ 2
MIC50 of the antibiotic after combined use [4]: 1 µg/mL
MIC90 of the antibiotic after combined use [4]: 4 µg/mL
reduction of the antibiotic's MIC50 vs single use [4]: 75%
reduction of the antibiotic's MIC90 vs single use [4]: 75%
share of strains with FIC ≤ 0.5 [4]: 25%
combined-use MIC (strain A1, EA (10% ethanol extract) with POLB): 4 µg/mL
combined-use MIC (strain A1, EA (60% ethanol extract) + POLB combined): 4 µg/mL
combined-use MIC (strain A1, EA (95% ethanol extract) + POLB combined): 4 µg/mL
combined-use MIC (strain A1, EA (water extract) with POLB): 4 µg/mL
single-use MIC (strain A1, EA=60% ethanol extract): 8 µg/mL
single-use MIC (strain A1, EA=95% ethanol extract): 8 µg/mL
combined-use MIC (strain A2, EA (10% ethanol extract) with POLB): 1 µg/mL
combined-use MIC (strain A2, EA (60% ethanol extract) + POLB combined): 0.5 µg/mL
combined-use MIC (strain A2, EA (95% ethanol extract) + POLB combined): 0.5 µg/mL
combined-use MIC (strain A2, EA (water extract) with POLB): 1 µg/mL
single-use MIC (strain A2, EA=60% ethanol extract): 2 µg/mL
single-use MIC (strain A2, EA=95% ethanol extract): 2 µg/mL
combined-use MIC (strain A3, EA (10% ethanol extract) with POLB): 1 µg/mL
combined-use MIC (strain A3, EA (60% ethanol extract) + POLB combined): 1 µg/mL
combined-use MIC (strain A3, EA (95% ethanol extract) + POLB combined): 1 µg/mL
combined-use MIC (strain A3, EA (water extract) with POLB): 0.5 µg/mL
single-use MIC (strain A3, EA=60% ethanol extract): 2 µg/mL
single-use MIC (strain A3, EA=95% ethanol extract): 2 µg/mL
combined-use MIC (strain A4, EA (10% ethanol extract) with POLB): 1 µg/mL
combined-use MIC (strain A4, EA (60% ethanol extract) + POLB combined): 1 µg/mL
combined-use MIC (strain A4, EA (95% ethanol extract) + POLB combined): 1 µg/mL
combined-use MIC (strain A4, EA (water extract) with POLB): 0.5 µg/mL
single-use MIC (strain A4, EA=60% ethanol extract): 2 µg/mL
single-use MIC (strain A4, EA=95% ethanol extract): 2 µg/mL
single-use MIC (strain A5 (printed AS in tables A43, A45), EA=95% ethanol extract): 4 µg/mL
combined-use MIC (strain A5, EA (10% ethanol extract) with POLB): 1 µg/mL
combined-use MIC (strain A5, EA (60% ethanol extract) + POLB combined): 2 µg/mL
combined-use MIC (strain A5, EA (water extract) with POLB): 0.5 µg/mL
single-use MIC (strain A5, EA=60% ethanol extract): 4 µg/mL
combined-use MIC (strain A6, EA (10% ethanol extract) with POLB): 1 µg/mL
combined-use MIC (strain A6, EA (60% ethanol extract) + POLB combined): 2 µg/mL
combined-use MIC (strain A6, EA (95% ethanol extract) + POLB combined): 2 µg/mL
combined-use MIC (strain A6, EA (water extract) with POLB): 2 µg/mL
single-use MIC (strain A6, EA=60% ethanol extract): 8 µg/mL
single-use MIC (strain A6, EA=95% ethanol extract): 8 µg/mL
combined-use MIC (strain A7, EA (10% ethanol extract) with POLB): 1 µg/mL
combined-use MIC (strain A7, EA (60% ethanol extract) + POLB combined): 2 µg/mL
combined-use MIC (strain A7, EA (95% ethanol extract) + POLB combined): 2 µg/mL
combined-use MIC (strain A7, EA (water extract) with POLB): 1 µg/mL
single-use MIC (strain A7, EA=60% ethanol extract): 4 µg/mL
single-use MIC (strain A7, EA=95% ethanol extract): 4 µg/mL
combined-use MIC (strain A8, EA (10% ethanol extract) with POLB): 0.0625 µg/mL
combined-use MIC (strain A8, EA (60% ethanol extract) + POLB combined): 0.0625 µg/mL
combined-use MIC (strain A8, EA (95% ethanol extract) + POLB combined): 1 µg/mL
combined-use MIC (strain A8, EA (water extract) with POLB): 0.0625 µg/mL
single-use MIC (strain A8, EA=60% ethanol extract): 8 µg/mL
single-use MIC (strain A8, EA=95% ethanol extract): 8 µg/mL
combined-use MIC (strain A9, EA (10% ethanol extract) with POLB): 0.0625 µg/mL
combined-use MIC (strain A9, EA (60% ethanol extract) + POLB combined): 0.0625 µg/mL
combined-use MIC (strain A9, EA (95% ethanol extract) + POLB combined): 0.25 µg/mL
combined-use MIC (strain A9, EA (water extract) with POLB): 0.0625 µg/mL
single-use MIC (strain A9, EA=60% ethanol extract): 1 µg/mL
single-use MIC (strain A9, EA=95% ethanol extract): 1 µg/mL
combined-use MIC (strain A10, EA (10% ethanol extract) with POLB): 4 µg/mL
combined-use MIC (strain A10, EA (60% ethanol extract) + POLB combined): 8 µg/mL
combined-use MIC (strain A10, EA (95% ethanol extract) + POLB combined): 8 µg/mL
combined-use MIC (strain A10, EA (water extract) with POLB): 8 µg/mL
single-use MIC (strain A10, EA=60% ethanol extract): 32 µg/mL
single-use MIC (strain A10, EA=95% ethanol extract): 32 µg/mL
combined-use MIC (strain A11, EA (10% ethanol extract) with POLB): 8 µg/mL
combined-use MIC (strain A11, EA (60% ethanol extract) + POLB combined): 4 µg/mL
combined-use MIC (strain A11, EA (95% ethanol extract) + POLB combined): 4 µg/mL
combined-use MIC (strain A11, EA (water extract) with POLB): 4 µg/mL
single-use MIC (strain A11, EA=60% ethanol extract): 16 µg/mL
single-use MIC (strain A11, EA=95% ethanol extract): 16 µg/mL
combined-use MIC (strain A12, EA (10% ethanol extract) with POLB): 1 µg/mL
combined-use MIC (strain A12, EA (60% ethanol extract) + POLB combined): 0.5 µg/mL
combined-use MIC (strain A12, EA (95% ethanol extract) + POLB combined): 1 µg/mL
combined-use MIC (strain A12, EA (water extract) with POLB): 0.0625 µg/mL
single-use MIC (strain A12, EA=60% ethanol extract): 2 µg/mL
single-use MIC (strain A12, EA=95% ethanol extract): 2 µg/mL
combined-use MIC (strain A13, EA (10% ethanol extract) with POLB): 1 µg/mL
combined-use MIC (strain A13, EA (60% ethanol extract) + POLB combined): 1 µg/mL
combined-use MIC (strain A13, EA (95% ethanol extract) + POLB combined): 1 µg/mL
combined-use MIC (strain A13, EA (water extract) with POLB): 1 µg/mL
single-use MIC (strain A13, EA=60% ethanol extract): 2 µg/mL
single-use MIC (strain A13, EA=95% ethanol extract): 2 µg/mL
combined-use MIC (strain A14, EA (10% ethanol extract) with POLB): 0.0625 µg/mL
combined-use MIC (strain A14, EA (60% ethanol extract) + POLB combined): 0.0625 µg/mL
combined-use MIC (strain A14, EA (95% ethanol extract) + POLB combined): 0.25 µg/mL
combined-use MIC (strain A14, EA (water extract) with POLB): 0.0625 µg/mL
single-use MIC (strain A14, EA=60% ethanol extract): 0.5 µg/mL
single-use MIC (strain A14, EA=95% ethanol extract): 0.5 µg/mL
combined-use MIC (strain A15, EA (10% ethanol extract) with POLB): 1 µg/mL
combined-use MIC (strain A15, EA (60% ethanol extract) + POLB combined): 0.0625 µg/mL
combined-use MIC (strain A15, EA (95% ethanol extract) + POLB combined): 0.0625 µg/mL
combined-use MIC (strain A15, EA (water extract) with POLB): 0.0625 µg/mL
single-use MIC (strain A15, EA=60% ethanol extract): 2 µg/mL
single-use MIC (strain A15, EA=95% ethanol extract): 2 µg/mL
combined-use MIC (strain A16, EA (10% ethanol extract) with POLB): 1 µg/mL
combined-use MIC (strain A16, EA (60% ethanol extract) + POLB combined): 0.0625 µg/mL
combined-use MIC (strain A16, EA (95% ethanol extract) + POLB combined): 0.0625 µg/mL
combined-use MIC (strain A16, EA (water extract) with POLB): 0.0625 µg/mL
single-use MIC (strain A16, EA=60% ethanol extract): 4 µg/mL
single-use MIC (strain A16, EA=95% ethanol extract): 4 µg/mL
combined-use MIC (strain A17, EA (10% ethanol extract) with POLB): 16 µg/mL
combined-use MIC (strain A17, EA (60% ethanol extract) + POLB combined): 2 µg/mL
combined-use MIC (strain A17, EA (95% ethanol extract) + POLB combined): 4 µg/mL
combined-use MIC (strain A17, EA (water extract) with POLB): 2 µg/mL
single-use MIC (strain A17, EA=60% ethanol extract): 64 µg/mL
single-use MIC (strain A17, EA=95% ethanol extract): 64 µg/mL
combined-use MIC (strain A18, EA (10% ethanol extract) with POLB): 1 µg/mL
combined-use MIC (strain A18, EA (60% ethanol extract) + POLB combined): 0.5 µg/mL
combined-use MIC (strain A18, EA (95% ethanol extract) + POLB combined): 1 µg/mL
combined-use MIC (strain A18, EA (water extract) with POLB): 2 µg/mL
single-use MIC (strain A18, EA=60% ethanol extract): 4 µg/mL
single-use MIC (strain A18, EA=95% ethanol extract): 4 µg/mL
combined-use MIC (strain A19, EA (10% ethanol extract) with POLB): 1 µg/mL
combined-use MIC (strain A19, EA (60% ethanol extract) + POLB combined): 0.5 µg/mL
combined-use MIC (strain A19, EA (95% ethanol extract) + POLB combined): 1 µg/mL
combined-use MIC (strain A19, EA (water extract) with POLB): 2 µg/mL
single-use MIC (strain A19, EA=60% ethanol extract): 4 µg/mL
single-use MIC (strain A19, EA=95% ethanol extract): 4 µg/mL
combined-use MIC (strain A20, EA (10% ethanol extract) with POLB): 1 µg/mL
combined-use MIC (strain A20, EA (60% ethanol extract) + POLB combined): 0.5 µg/mL
combined-use MIC (strain A20, EA (95% ethanol extract) + POLB combined): 0.5 µg/mL
combined-use MIC (strain A20, EA (water extract) with POLB): 1 µg/mL
single-use MIC (strain A20, EA=60% ethanol extract): 2 µg/mL
single-use MIC (strain A20, EA=95% ethanol extract): 2 µg/mL
combined-use MIC (strain AS, EA (95% ethanol extract) + POLB combined): 2 µg/mL

From patent US11793849B2, “Method of Chinese herbal medicine extract used for treating multiple diseases caused by drug resistant bacteria infection” (priority 2016, dated 2023)
